How the values were obtained:
human H3 receptor = biological target: T1, human H3 receptor (Homo sapiens, UniProt Q9Y5N1); assay: Human H3 radioligand binding ([3H]-N-alpha-methylhistamine, SPA); settings: membranes of CHO cells expressing human H3
T1 construct: expressed in transfected cells
Outline: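 Membranes from H3-expressing cells (10 μg protein/well) in 50 mM Tris HCl pH 7.4, 5 mM MgCl2, 0.1% BSA with ~1 nM [3H]-N-alpha-methylhistamine and compound (0.01 nM–30 μM), SPA beads, 4 h, room temperature, dark. Non-specific binding defined with 10 μM clobenpropit; bound radioligand read by scintillation counting.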

[1] = biological target: T2, rat histamine H3 receptor (Rattus norvegicus, UniProt Q9QYN8); assay: Rat H3 radioligand binding ([3H]-N-alpha-methylhistamine, SPA); settings: membranes of CHO-A3 cells expressing rat H3; [3H]-N-alpha-methylhistamine; read-out: Rat H3 Ki
T2 construct: encoding the entire 445-amino-acid rat histamine H3 receptor; expressed in transfected cells
Outline: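 Membranes from CHO-A3 cells stably expressing full-length rat H3 receptor (445 aa) incubated with ~1 nM [3H]-N-alpha-methylhistamine and compound (0.01 nM–30 μM) in 50 mM Tris HCl pH 7.4, 5 mM MgCl2, 0.1% BSA, 4 h, room temperature; SPA bead read-out. Non-specific binding defined with 10 μM clobenpropit.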

T2 sequence (Q9QYN8 whole entry): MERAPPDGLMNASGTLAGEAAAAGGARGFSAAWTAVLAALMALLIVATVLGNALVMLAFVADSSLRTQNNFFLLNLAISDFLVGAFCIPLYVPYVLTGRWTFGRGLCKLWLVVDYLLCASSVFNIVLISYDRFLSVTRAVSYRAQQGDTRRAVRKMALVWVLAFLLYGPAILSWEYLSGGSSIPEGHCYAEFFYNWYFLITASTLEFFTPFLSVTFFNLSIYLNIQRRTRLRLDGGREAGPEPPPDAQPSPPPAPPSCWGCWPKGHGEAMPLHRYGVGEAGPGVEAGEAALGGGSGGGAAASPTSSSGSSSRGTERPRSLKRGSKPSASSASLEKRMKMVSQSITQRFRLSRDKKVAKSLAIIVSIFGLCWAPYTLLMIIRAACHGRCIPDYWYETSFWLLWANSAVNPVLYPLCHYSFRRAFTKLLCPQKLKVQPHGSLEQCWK
T1 sequence (Q9Y5N1 whole entry): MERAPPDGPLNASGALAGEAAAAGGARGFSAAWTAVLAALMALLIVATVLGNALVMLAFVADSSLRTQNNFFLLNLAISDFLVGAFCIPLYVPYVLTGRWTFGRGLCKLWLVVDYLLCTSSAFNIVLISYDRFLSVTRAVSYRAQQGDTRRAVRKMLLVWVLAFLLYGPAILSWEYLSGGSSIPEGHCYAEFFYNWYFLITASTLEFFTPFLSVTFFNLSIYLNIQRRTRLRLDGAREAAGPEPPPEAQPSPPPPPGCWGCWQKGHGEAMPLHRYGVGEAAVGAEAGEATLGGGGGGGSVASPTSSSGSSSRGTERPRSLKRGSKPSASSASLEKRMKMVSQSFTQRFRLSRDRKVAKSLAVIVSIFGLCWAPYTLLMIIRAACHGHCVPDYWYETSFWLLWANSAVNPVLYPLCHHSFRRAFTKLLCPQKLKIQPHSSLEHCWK

SMILES | Ki (human H3 receptor) [nM] | Ki [1] [nM] | melting point
C[C@@H]1CCCN1CCCOc1ccc(C(=O)CN2CCCc3ccccc32)cc1 [Example 108, 2-(3,4-Dihydro-2H-quinolin-1-yl)-1-{4-[3-((R)-2-methyl-pyrrolidin-1-yl)-propoxy]-phenyl}-ethanone] | 0.1 to 100 | 0.1 to 100 | 166 to 168 °C
C[C@@H]1CCCN1CCCOc1ccc(C(=O)CN2CCN(C(=O)c3ccc4ccccc4c3)CC2)cc1 [Example 109, 1-{4-(3-((R)-2-Methyl-pyrrolidin-1-yl)-propoxy]-phenyl}-2-[4-(naphthalene-2-carbonyl)-piperazin-1-yl]-ethanone] | 0.1 to 100 | 0.1 to 100 | 100.5 to 109.5 °C
CC(=O)N1CCN(CC(=O)c2cc(Cl)c(OCCCN3CCC[C@H]3C)c(Cl)c2)CC1 [Example 110, 2-(4-Acetyl-piperazin-1-yl)-1-{3,5-dichloro-4-[3-((R)-2-methyl-pyrrolidin-1-yl)-propoxy]-phenyl}-ethanone] | 101 to 500 | 101 to 500 | 115 °C
C[C@@H]1CCCN1CCCOc1c(Cl)cc(C(=O)CN2CCN(c3ncccn3)CC2)cc1Cl [Example 111, 1-{3,5-Dichloro-4-[3-((R)-2-methyl-pyrrolidin-1-yl)-propoxy]-phenyl}-2-(4-pyrimidin-2-yl-piperazin-1-yl)-ethanone] | 0.1 to 100 | 101 to 500 | 177 °C
C[C@@H]1CCCN1CCCOc1ccc(C(=O)CN2CCN(C(=O)c3ccccc3)CC2)cc1Cl [Example 113, 2-(4-Benzoyl-piperazin-1-yl)-1-{3-chloro-4-[3-((R)-2-methyl-pyrrolidin-1-yl)-propoxy]-phenyl}-ethanone] | 0.1 to 100 | 0.1 to 100 | 130 to 137 °C
C[C@@H]1CCCN1CCCOc1ccc(C(=O)CN2CCCCc3ccccc32)cc1 [Example 114, 1-{4-[3-((R)-2-Methyl-pyrrolidin-1-yl)-propoxy]-phenyl}-2-(2,3,4,5-tetrahydro-benzo[b]azepin-1-yl)-ethanone] | 0.1 to 100 | 0.1 to 100 | 90 to 96 °C
CCOC(=O)N1CCN(CC(=O)c2ccc(OCCCN3CCC[C@H]3C)cc2)CC1 [Example 115, 4-(2-{4-[3-((R)-2-Methyl-pyrrolidin-1-yl)-propoxy]-phenyl}-2-oxo-ethyl)-piperazine-1-carboxylic acid ethyl ester] | 0.1 to 100 | 0.1 to 100 | 218 to 219 °C
C[C@@H]1CCCN1CCCOc1ccc(C(=O)CN2CCN(c3ccccn3)CC2)cc1 [Example 116, 1-{4-[3-((R)-2-Methyl-pyrrolidin-1-yl)-propoxy]-phenyl}-2-(4-pyridin-2-yl-piperazin-1-yl)-ethanone] | 0.1 to 100 | 0.1 to 100 | 239 to 242 °C
C[C@@H]1CCCN1CCCOc1ccc(C(=O)CN2CCN(C(=O)OC(C)(C)C)CC2)cc1 [Example 117, 4-(2-{4-[3-((R)-2-Methyl-pyrrolidin-1-yl)-propoxy]-phenyl}-2-oxo-ethyl)-piperazine-1-carboxylic acid tert-butyl ester] | 0.1 to 100 | 0.1 to 100 | 198 to 199 °C
CC(C)C(=O)N1CCN(CC(=O)c2ccc(OCCCN3CCC[C@H]3C)c(Cl)c2)CC1 [Example 118, 1-[4-(2-{3-Chloro-4-[3-((R)-2-methyl-pyrrolidin-1-yl)-propoxy]-phenyl}-2-oxo-ethyl)-piperazin-1-yl]-2-methyl-propan-1-one] | 0.1 to 100 | 0.1 to 100 | 140 °C (dec.)
C[C@@H]1CCCN1CCCOc1ccc(C(=O)CN2CCN(c3ncccn3)CC2)cc1F [Example 119, 1-{3-Fluoro-4-[3-((R)-2-methyl-pyrrolidin-1-yl)-propoxy]-phenyl}-2-(4-pyrimidin-2-yl-piperazin-1-yl)-ethanone] | 0.1 to 100 | 0.1 to 100 | 219 °C
C[C@@H]1CCCN1CCCOc1ccc(C(=O)CN2CCN(C(=O)c3ccccc3)CC2)cc1F [Example 120, 2-(4-Benzoyl-piperazin-1-yl)-1-{3-fluoro-4-[3-((R)-2-methyl-pyrrolidin-1-yl)-propoxy]-phenyl}-ethanone] | 0.1 to 100 | 0.1 to 100 | 96 °C
CC(C)C(=O)N1CCN(CC(=O)c2ccc(OCCCN3CCC[C@H]3C)c(F)c2)CC1 [Example 121, 1-[4-(2-{3-Fluoro-4-[3-((R)-2-methyl-pyrrolidin-1-yl)-propoxy]-phenyl}-2-oxoethyl)-piperazin-1-yl]-2-methyl-propan-1-one] | 0.1 to 100 | 0.1 to 100 | 75 °C
C[C@@H]1CCCN1CCCOc1ccc(C(=O)CN2CCN(S(C)(=O)=O)CC2)cc1F [Example 122, 1-{3-Fluoro-4-[3-((R)-2-methyl-pyrrolidin-1-yl)-propoxy]-phenyl}-2-(4-methanesulfonyl-piperazin-1-yl)-ethanone] | 0.1 to 100 | 0.1 to 100 | 86 °C
C[C@@H]1CCCN1CCCOc1ccc(C(=O)CN2CCN(C(=O)N(C)C)CC2)cc1F [Example 123] | 0.1 to 100 | 0.1 to 100 | 81 °C
C[C@@H]1CCCN1CCCOc1ccc(C(=O)CN2CCN(C(=O)c3cc4ccccc4s3)CC2)cc1 [Example 124, 2-[4-(Benzo[b]thiophene-2-carbonyl)-piperazin-1-yl]-1-{4-[3-((R)-2-methyl-pyrrolidin-1-yl)-propoxy]-phenyl}-ethanone] | 0.1 to 100 | 0.1 to 100 | 214 to 217 °C
C[C@@H]1CCCN1CCCOc1ccc(C(=O)CN2CCN(c3ncccn3)CC2)cc1Cl [Example 125, 1-{3-Chloro-4-[3-((R)-2-methyl-pyrrolidin-1-yl)-propoxy]-phenyl}-2-(4-pyrimidin-2-yl-piperazin-1-yl)-ethanone] | 0.1 to 100 | 101 to 500 | 112 to 114 °C
C[C@@H]1CCCN1CCCOc1ccc(C(=O)CN2CCN(C(=O)c3ccc(F)cc3F)CC2)cc1 [Example 126, 2-[4-(2,4-Difluoro-benzoyl)-piperazin-1-yl]-1-{4-[3-((R)-2-methyl-pyrrolidin-1-yl)-propoxy]-phenyl}-ethanone] | 0.1 to 100 | 0.1 to 100 | 115 to 117 °C
COC(=O)N1CCN(CC(=O)c2ccc(OCCCN3CCC[C@H]3C)c(F)c2)CC1 [Example 127, 4-(2-{3-Fluoro-4-[3-((R)-2-methyl-pyrrolidin-1-yl)-propoxy]-phenyl}-2-oxo-ethyl)-piperazine-1-carboxylic acid methyl ester] | 0.1 to 100 | 0.1 to 100 | 236 °C
C[C@@H]1CCCN1CCCOc1ccc(C(=O)CN2CCN(C(=O)Oc3ccccc3)CC2)cc1 [Example 128, 4-(2-{4-[3-((R)-2-Methyl-pyrrolidin-1-yl)-propoxy]-phenyl}-2-oxo-ethyl)-piperazine-1-carboxylic acid phenyl ester] | 0.1 to 100 | 0.1 to 100 | 194 to 199 °C
C[C@@H]1CCCN1CCCOc1ccc(C(=O)CN2CCN(C(=O)c3ccc(Cl)c(Cl)c3)CC2)cc1 [Example 129, 2-[4-(3,4-Dichloro-benzoyl)-piperazin-1-yl]-1-{4-[3-((R)-2-methyl-pyrrolidin-1-yl)-propoxy]-phenyl}-ethanone] | 0.1 to 100 | 0.1 to 100 | 88 to 90.5 °C
Cc1cc(C(=O)CN2CCN(c3ncccn3)CC2)ccc1OCCCN1CCC[C@H]1C [Example 130, 1-{3-Methyl-4-[3-((R)-2-methyl-pyrrolidin-1-yl)-propoxy]-phenyl}-2-(4-pyrimidin-2-yl-piperazin-1-yl)-ethanone] | 0.1 to 100 | 0.1 to 100 | 231.5 to 235 °C
COC(=O)N1CCN(CC(=O)c2ccc(OCCCN3CCC[C@H]3C)c(Cl)c2)CC1 [Example 132, 4-(2-{3-Chloro-4-[3-((R)-2-methyl-pyrrolidin-1-yl)-propoxy]-phenyl}-2-oxo-ethyl)-piperazine-1-carboxylic acid methyl ester] | 0.1 to 100 | 101 to 500 | 122 to 124 °C
C[C@@H]1CCCN1CCCOc1ccc(C(=O)CN2CCC(F)(F)CC2)cc1Cl [Example 134, 1-{3-Chloro-4-[3-((R)-2-methyl-pyrrolidin-1-yl)-propoxy]-phenyl}-2-(4,4-difluoro-piperidin-1-yl)-ethanone] | 0.1 to 100 | 101 to 500 | 130 to 143 °C
CC(=O)N1CCN(CC(=O)c2ccc(OCCCN3CCC[C@H]3C)c(Cl)c2)CC1 [Example 135, 2-(4-Acetyl-piperazin-1-yl)-1-{3-chloro-4-[3-((R)-2-methyl-pyrrolidin-1-yl)-propoxy]-phenyl}-ethanone] | 0.1 to 100 | 0.1 to 100 | 113 to 128 °C
C[C@@H]1CCCN1CCCOc1ccc(C(=O)CN2CCN(C(=O)OCc3ccccc3)CC2)cc1 [Example 138, 4-(2-{4-[3-((R)-2-Methyl-pyrrolidin-1-yl)-propoxy]-phenyl}-2-oxo-ethyl)-piperazine-1-carboxylic acid benzyl ester] | 0.1 to 100 | 0.1 to 100 | 183 to 188 °C
C[C@@H]1CCCN1CCCOc1ccc(C(=O)CN2CCC(F)(F)C2)cc1F [Example 139, 2-(3,3-Difluoro-pyrrolidin-1-yl)-1-{3-fluoro-4-[3-((R)-2-methyl-pyrrolidin-1-yl)-propoxy]-phenyl}-ethanone] | 0.1 to 100 | 0.1 to 100 | 206 °C
